US9642889B2, “Macrocyclic inhibitors of Flaviviridae viruses” (Selcia Limited, priority 2012, dated 2017)
Like-named read-outs stand apart in the source and are kept apart here.

Legend:
[1] = system: Huh-7 HCV replicon cells (1b replicon); assay: anti-HCV activity in Huh-7 cell line harboring a HCV replicon (luciferase readout); assay type: cell-based; details: for EC50: inhibition of viral replication, Huh-7 HCV replicon cells, 3 days, read-out: EC50; for inhibition at 1 µM: Huh-7, read-out: Replicon 1b % inhibition at 1 μM, 1b replicon, 1 μM compound; for Replicon 1b % inhibition at 1 μM: 1b replicon, 1 μM compound
cyclophilin A = cyclophilin A (Homo sapiens, UniProt P62937); assay: Cyclophilin A TR-FRET competitive binding assay; details: competition with CsA-Cy5 for His-tagged CypA, two-hour incubation
cyclophilin A, sequence (P62937 whole entry, species assumed): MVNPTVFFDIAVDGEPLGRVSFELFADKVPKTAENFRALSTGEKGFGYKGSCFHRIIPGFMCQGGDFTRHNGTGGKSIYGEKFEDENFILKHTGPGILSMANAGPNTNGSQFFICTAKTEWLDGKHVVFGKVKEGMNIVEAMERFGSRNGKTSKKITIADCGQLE
Protocol: Cyclophilin A TR-FRET Competitive Binding Assay
Inhibitor potency was measured using a competitive binding assay with a time-resolved fluorescence resonance energy transfer (TR-FRET) readout. […] An IC50 value was calculated using a four-parameter logistic fit.

Row | Compound | EC50 ([1]; Hepatitis C virus, Huh-7, 72 h) [nM] | inhibition at 1 µM ([1]; Hepatitis C virus) [%] | IC50 (cyclophilin A) [nM] | Replicon 1b % inhibition at 1 μM [1] [%] | EC50 [1] [nM] | Replicon 1b % inhibition at 1 μM ([1]; 1 µM) [%]
1 | CCCC(=O)O[C@H]1CC[C@]2(/C=C/c3ccc4ccc(nc4c3)[C@@H](C)NC(=O)[C@@H]3CCCN(N3)C(=O)[C@H](C)NC(=O)[C@H](C(C)C)OC2=O)CC1 [Compound 82] | < 1000 | 99 | < 100 | – | – | –
2 | CC(C)[C@@H]1OC(=O)[C@H](C)[C@H](O)CCCCc2cccc(c2)[C@@H](C)NC(=O)[C@@H]2CCCN(N2)C(=O)[C@H](C)NC1=O [Compound 10, (2R,5S,11S,14S,17R,18R)-18-Hydroxy-14-isopropyl-2,11,17-trimethyl-15-oxa-3,9,12,28-tetraaza-tricyclo[21.3.1.1*5,9*]octacosa-1(26),23(27),24-triene-4,10,13,16-tetraone] | < 1000 | 92 | < 100 | – | – | –
3 | CC(C)[C@@H]1OC(=O)C2(/C=C/c3ccc4ccc(nc4c3)[C@@H](C)NC(=O)[C@@H]3CCCN(N3)C(=O)[C@H](C)NC1=O)CCOC2 (stereo partly drawn) [Compound 73] | < 1000 | 97 | < 100 | – | – | –
4 | CC(C)[C@@H]1OC(=O)C2(/C=C/c3ccc4ccc(nc4c3)[C@@H](C)NC(=O)[C@@H]3CCCN(N3)C(=O)[C@H](C)NC1=O)CCN(C(=O)OC(C)(C)C)CC2 [Compound 84] | 1100 to 10000 | 10 | 1000 to 10000 | – | – | –
5 | CC[C@H](C)[C@@H]1OC(=O)C2(/C=C/c3ccc4ccc(nc4c3)[C@@H](C)NC(=O)[C@@H]3CCCN(N3)C(=O)[C@H](C)NC1=O)COCOC2 [Compound 65] | < 1000 | 99 | < 100 | – | – | –
6 | CC(CC[C@@H]1C/C=C/c2cc3cc(ccc3cn2)[C@@H](C)NC(=O)[C@@H]2CCCN(N2)C(=O)[C@H](C)NC(=O)[C@H](C(C)C)OC1=O)=NOCCN1CCOCC1 (mixture of isomers) [Compound 15] | < 1000 | 98 | < 100 | – | – | –
7 | CC1/C=C/c2ccc3ccc(nc3c2)[C@@H](C)OC(=O)[C@@H]2CCCN(N2)C(=O)[C@H](C)NC(=O)[C@H](C(C)C)OC1 (single isomer, unassigned) [Compound 27] | < 1000 | 92 | < 100 | – | – | –
8 | CC1/C=C/c2cc3cc(ccc3cn2)[C@@H](C)NC(=O)[C@@H]2CCCN(N2)C(=O)[C@H](C)NC(=O)[C@H](C(C)C)OC1=O (stereo partly drawn) [Compound 5] | < 1000 | 93 | < 100 | – | – | –
9 | CCC[C@@H]1C/C=C/c2cc3cc(ccc3cn2)[C@@H](C)NC(=O)[C@@H]2CCCN(N2)C(=O)[C@H](C)NC(=O)[C@H](C(C)C)OC1=O [Compound 4] | < 1000 | 100 | < 100 | – | – | –
10 | CCCC(=O)O[C@H]1CC[C@@]2(/C=C/c3ccc4ccc(nc4c3)[C@@H](C)NC(=O)[C@@H]3CCCN(N3)C(=O)[C@H](C)NC(=O)[C@H](C(C)C)OC2=O)CC1 [Compound 108] | < 1000 | 99 | < 100 | – | – | –
11 | C[C@@H]1NC(=O)[C@H](C2CC2)OC(=O)C2(/C=C/c3ccc4ccc(nc4c3)[C@@H](C)NC(=O)[C@@H]3CCCN(N3)C1=O)CCC(O)CC2 (stereo partly drawn) [Compound 66] | < 1000 | 97 | < 100 | – | – | –
12 | C[C@@H]1NC(=O)[C@H](CC(F)F)OC(=O)C(C)(C)/C=C/c2ccc3ccc(nc3c2)[C@@H](C)NC(=O)[C@@H]2CCCN(N2)C1=O [Compound 62] | < 1000 | 84 | < 100 | – | – | –
13 | CC(C)[C@@H]1OC(=O)C2(/C=C/c3ccc4ccc(nc4c3)[C@@H](C)NC(=O)[C@@H]3CCCN(N3)C(=O)[C@H](C)NC1=O)COC(=O)OC2 [Compound 98] | < 1000 | 90 | < 100 | – | – | –
14 | CC(C)[C@@H]1OC(=O)CCc2ccc(cc2)-c2cccc(c2)[C@@H](C)NC(=O)[C@@H]2CCCN(N2)C(=O)[C@H](C)NC1=O [Compound 6] | < 1000 | 94 | < 100 | – | – | –
15 | CC(C)[C@@H]1OC(=O)C(C)(C)/C=C/c2ccc3ccc(nc3c2)[C@@H](C)N(C)C(=O)[C@@H]2CCCN(N2)C(=O)[C@H](CO)NC1=O [Compound 41] | < 1000 | 98 | < 100 | – | – | –
16 | CC(C)[C@@H]1OC(=O)C(C)(C)C/C=C/c2cc3cc(ccc3cn2)[C@@H](C)NC(=O)[C@@H]2CCCN(N2)C(=O)[C@H](C)NC1=O [Compound 12] | < 1000 | 100 | < 100 | – | – | –
17 | CC(C)[C@@H]1OC(=O)C2(/C=C/c3ccc4ccc(nc4c3)[C@@H](C)NC(=O)[C@@H]3CCCN(N3)C(=O)[C@H](C)NC1=O)COC(C)(C)CO2 (single isomer, unassigned) [Compound 100] | – | – | < 100 | 100 | < 1000 | –
18 | CC(C)[C@@H]1OC(=O)C2(/C=C/c3ccc4ccc(nc4c3)[C@@H](C)NC(=O)[C@@H]3CCCN(N3)C(=O)[C@H](C)NC1=O)CCCOC2 (single isomer, unassigned) [Compound 50] | < 1000 | 100 | < 100 | – | – | –

Row | Compound | EC50 ([1]; Hepatitis C virus, Huh-7, 72 h) [nM] | inhibition at 1 µM ([1]; Hepatitis C virus) [%] | IC50 (cyclophilin A) [nM] | Replicon 1b % inhibition at 1 μM [1] [%] | EC50 [1] [nM] | Replicon 1b % inhibition at 1 μM ([1]; 1 µM) [%]
19 | CC(C)[C@@H]1OC(=O)C2(/C=C/c3ccc4ccc(nc4c3)[C@@H](C)NC(=O)[C@@H]3CCCN(N3)C(=O)[C@H](C)NC1=O)COCCO2 (single isomer, unassigned) [Compound 43] | – | – | < 100 | 99 | < 1000 | –
20 | C[C@@H]1NC(=O)[C@H]([C@@H](C)O)OC(=O)C(C)(C)/C=C/c2ccc3ccc(nc3c2)[C@@H](C)NC(=O)[C@@H]2CCCN(N2)C1=O [Compound 87] | < 1000 | 61 | < 100 | – | – | –
21 | CC(C)[C@@H]1OC(=O)[C@@]2(/C=C/c3ccc4ccc(nc4c3)[C@@H](C)NC(=O)[C@@H]3CCCN(N3)C(=O)[C@H](C)NC1=O)CCOC(C)(C)C2 [Compound 90] | < 1000 | 99 | < 100 | – | – | –
22 | CC1NC(=O)C(C2CC2)OC(=O)C2(C=Cc3ccc4ccc(nc4c3)C(C)NC(=O)C3CCCN(N3)C1=O)CCC(O)C2 (single isomer, unassigned) [Compound 105] | – | – | 101 to 1000 | – | 1100 to 10000 | 2
23 | CC(C)[C@@H]1OC(=O)C(CF)(CF)/C=C/c2ccc3ccc(nc3c2)[C@@H](C)NC(=O)[C@@H]2CCCN(N2)C(=O)[C@H](C)NC1=O [Compound 99] | < 1000 | 100 | < 100 | – | – | –
24 | CC(C)[C@@H]1OC(=O)[C@@](C)(COC(F)(F)F)/C=C/c2ccc3ccc(nc3c2)[C@@H](C)NC(=O)[C@@H]2CCCN(N2)C(=O)[C@H](C)NC1=O [Compound 56] | < 1000 | 99 | < 100 | – | – | –
25 | CC(C)[C@@H]1OC(=O)C2(/C=C/c3ccc4ccc(nc4c3)[C@@H](C)NC(=O)[C@@H]3CCCN(N3)C(=O)[C@H](C)NC1=O)CCCOC2 (single isomer, unassigned) [Compound 51] | < 1000 | 100 | < 100 | – | – | –
26 | CC(C)[C@@H]1OC(=O)C2(/C=C/c3ccc4ccc(nc4c3)[C@@H](C)NC(=O)[C@@H]3CCCN(N3)C(=O)[C@H](C)NC1=O)CN(S(C)(=O)=O)CCO2 (stereo partly drawn) [Compound 97] | < 1000 | 96 | < 100 | – | – | –
27 | C[C@@H]1NC(=O)[C@H](C2CC2)OC(=O)C2(/C=C/c3ccc4ccc(nc4c3)[C@@H](C)NC(=O)[C@@H]3CCCN(N3)C1=O)CCC(O)C2 (stereo partly drawn) [Compound 102] | 1100 to 10000 | 13 | < 100 | – | – | –
28 | CC(C)[C@@H]1OC(=O)C2(/C=C/c3ccc4ccc(nc4c3)[C@@H](C)NC(=O)[C@@H]3CCCN(N3)C(=O)[C@H](C)NC1=O)COC(CF)(CF)OC2 [Compound 107] | < 1000 | 100 | < 100 | – | – | –
29 | CC(C)[C@@H]1OC(=O)C/C=C/c2cc3cc(ccc3cn2)[C@@H](C)NC(=O)[C@@H]2CCCN(N2)C(=O)[C@H](C)NC1=O [Compound 3] | < 1000 | 89 | < 100 | – | – | –
30 | CC1/C=C/c2ccc3ccc(nc3c2)[C@@H](C)OC(=O)[C@@H]2CCCN(N2)C(=O)[C@H](C)NC(=O)[C@H](C(C)C)OC1 (single isomer, unassigned) [Compound 28] | – | – | < 100 | – | < 1000 | 99
31 | CC1/C=C/c2ccc3ccc(nc3c2)[C@@H](C)NC(=O)[C@@H]2CCCN(N2)C(=O)[C@H](C)NC(=O)[C@H](C(C)C)OC1 (single isomer, unassigned) [Compound 35] | < 1000 | 88 | < 100 | – | – | –
32 | CC(C)[C@@H]1NS(=O)(=O)C/C=C/c2cc3cc(ccc3cn2)[C@@H](C)OC(=O)[C@@H]2CCCN(N2)C(=O)[C@H](C)NC1=O [Compound 21] | < 1000 | 71 | 101 to 1000 | – | – | –
33 | CC(C)[C@H]1C(=O)N[C@@H](C)C(=O)N2CCC[C@H](N2)C(=O)O[C@H](C)c2ccc3ccc(cc3n2)/C=C/C(C)(C)CN1C [Compound 26] | < 1000 | 68 | 101 to 1000 | – | – | –
34 | CO[C@@H](C)[C@@H]1OC(=O)C(C)(C)/C=C/c2ccc3ccc(nc3c2)[C@@H](C)NC(=O)[C@@H]2CCCN(N2)C(=O)[C@H](C)NC1=O [Compound 54] | < 1000 | 77 | 101 to 1000 | – | – | –
35 | COCC1NC(=O)C(C(C)C)OC(=O)C(C)(C)C=Cc2ccc3ccc(nc3c2)C(C)NC(=O)C2CCCN(N2)C1=O (single isomer, unassigned) [Compound 39] | 1100 to 10000 | 16 | 101 to 1000 | – | – | –
36 | CC1NC(=O)C(C2CC2)OC(=O)C2(C=Cc3ccc4ccc(nc4c3)C(C)NC(=O)C3CCCN(N3)C1=O)CCC(O)C2 (single isomer, unassigned) [Compound 103] | < 1000 | – | < 100 | – | – | 90
